From PMC4191062, “Development of αGlcN(1↔1)αMan-Based Lipid A Mimetics as a Novel Class of Potent Toll-like Receptor 4 Agonists” (Journal of Medicinal Chemistry, 2014)
“Also recorded” adds a separate entry of the source.

Columns and labels:
[1] = Storage stability in aqueous solution (MALDI-TOF analysis); type: physicochemical; settings: 4 °C, several months, free acids at the phosphates
Method: Next, the free 6-OH group in the hexaacylated disaccharides 57 and 58 was phosphorylated by reaction with dibenzyl-(N,N′-diisopropylamino)phosphoramidite in the presence of a mild acid catalyst, 1H-tetrazole, and subsequent oxidation with mCPBA at −78 °C to furnish the bisphosphorylated hexaacylated products 61 and 62 in 91% and 89% yield, respectively. Final debenzylation by hydrogenation of 57, 61, and 62 on Pd-black followed by purification with gel permeation chromatography on Sephadex SX1 in toluene–methanol (2:1) afforded target bisphosphorylated Lipid A mimetics 1 and 2 and a monophosphorylated counterpart 3.

human dendritic cells = experiment: Maturation marker expression in human dendritic cells (flow cytometry); type: cell-based; settings: hDCs, 24 h; LPS 10 ng/ml
Description: To test the impact of selected α,α-GM-LAMs 1 and 3 on maturation of human dendritic cells (hDCs), immature monocyte-derived hDCs were stimulated with 1 and 3 in a wide concentration range or with E. coli LPS as positive control. DCs are able to persistently sense pathogen-associated molecular patterns and present antigens to T lymphocytes, thereby initiating an adaptive immune response.[7]
None of the α,α-GM-LAMs exerted cytotoxic effects on DCs, as determined by propidium iodide staining (data not shown). […]
stimulatory molecules CD86 as well as the antigen presenting structures MHC class I and MHC class II, which are necessary for the induction of an adaptive immune response (SI-Figure 5). […]
up-regulation of the inhibitory B7-H1 (CD272) and Sialoadhesin (CD169), which is known to be indirectly up-regulated in DCs due to release of type-I interferons. […]
stimulator not only of the NF-κB- but also of the IRF-pathway. Stimulation of DCs with the monophosphoryl α,α- […]
SI-Figure 5. Bisphosphoryl α,α-GM-LAM 1 and monophosphoryl α,α-GM-LAM 3 induce the expression of maturation markers in human DCs. […] The cells were then harvested and the surface expression level of the indicated markers was measured by flow cytometry. […]

THP-1 cells = experiment: IRF-3 and IκBα phosphorylation by western blotting in THP-1 cells; type: cell-based, human
Method: Supplementary SI-Figure 3
Dose-dependent responses (THP-1 cells: α,α-GM-LAM 1-3 and Re-LPS) at the concentration range 0.4 – 100 ng/ml which are presented in the Figure 5, were extended to the higher concentration range (up to 300 ng/ml).
SI-Figure 3. Dose-dependent expression of cytokines induced by α,α-GM-LAM 1-3 in macrophage cell line THP-1 compared to E. coli Re-LPS at the concentration range 0.4 – 300 ng/ml. (A) Production of TNF-α; (B) Induction of […]
Supplementary SI-Figure 4
Lipid A mimetic 1 was examined for the activation of NF-κB (Nuclear factor kappaB) and IRF3
(Interferon regulatory factor 3). IRF3 activation […]
noticeable after 1h stimulation, though was
LPS. At 1h stimulation the α,α-GM-LAM 1 was […]
whereas at 3h simulation compound 1 (at a […]
stronger phosphorylation of IκBa (P-IκBa levels) as well as the higher levels of IκBa (reflecting the NF-κB dependent re-synthesis of IκB following its
Thus, IRF3 activation and NF-κB activation […]
degradation and its NF-κB dependent resynthesis) […]
compared to LPS after 3h stimulation.
SI-Figure 4. NF-κB and IRF-3 activation by LPS and α,α-GM-LAM 1 in macrophage-like cell line THP-1. THP-1 cells were treated for 1 h (upper panel) or for 3 h (lower panel) with 1 or with E. coli O111:B4 LPS at the concentrations 10, 100 and 1000 ng/ml. Non treated cells (NT) or cells treated with DMSO were used as controls.
Cell extracts were separated by SDS polyacrylamide gel electrophoresis. Phosphorylated or total IRF-3 and IκBα was detected by western blotting as indicated. Actin detection was used as a control for equal loading in each line. […]
Supplementary SI-Figure 6
The relative contribution of hydrophobic (acyl chains of Lipid A) and electrostatic (phosphate groups of Lipid A) interactions at the dimerization interface of two TLR4·MD-2·LPS complexes as well as the impact of the molecular shape of MD-2–bound Lipid A on the initiation of TLR4-mediated immune response remains largely unknown. […]

| Compound | stability on storage in aqueous solution [1] | DCs maturation and up-regulation of CD86, MHC class I and MHC class II compared to LPS (human dendritic cells) | activation of NF-κB compared with LPS (THP-1 cells; THP-1, 1 h stimulation) | IRF3 activation (IRF-3 phosphorylation) (THP-1 cells; THP-1, 3 h stimulation) | activation of NF-κB compared with LPS (P-IκBα and IκBα levels) (THP-1 cells; THP-1, 3 h stimulation, concentration higher than 50 nM) |
| --- | --- | --- | --- | --- | --- |
| CCCCCCCCCCCCCC(=O)O[C@H](CCCCCCCCCCC)CC(=O)O[C@@H]1[C@@H](NC(=O)C[C@@H](CCCCCCCCCCC)OC(=O)CCCCCCCCCCC)[C@@H](O[C@H]2O[C@H](COP(=O)(O)O)[C@@H](OC(=O)C[C@@H](CCCCCCCCCCC)OC(=O)CCCCCCCCCCC)[C@H](O)[C@@H]2OC)O[C@H](CO)[C@H]1OP(=O)(O)O [Compound 1, 4-O-[(R)-3-(Dodecanoyloxy)tetradecanoyl]-2-O-methyl-6-O-phosphoryl-α-D-mannopyranosyl-(1↔1)-2-deoxy-2-[(R)-3-(dodecanoyloxy)tetradecanoylamino]-4-O-phosphoryl-3-O-[(R)-3-(tetradecanoyloxy)tetradecanoyl]-α-D-glucopyranoside] | without any noticeable sign of degradation | as potent as by LPS; also recorded: as potent as that with LPS | comparable | detectable after 3h stimulation | more potent |
| CCCCCCCCCCCCCC(=O)O[C@H](CCCCCCCCCCC)CC(=O)O[C@@H]1[C@@H](NC(=O)C[C@@H](CCCCCCCCCCC)OC(=O)CCCCCCCCCCC)[C@@H](O[C@H]2O[C@H](COP(=O)(O)O)[C@@H](OC(=O)C[C@@H](CCCCCCCCCCC)OC(=O)CCCCCCCCC)[C@H](O)[C@@H]2OC)O[C@H](CO)[C@H]1OP(=O)(O)O [Compound 2, 4-O-[(R)-3-(Decanoyloxy)tetradecanoyl]-2-O-methyl-6-O-phosphoryl-α-mannopyranosyl-(1↔1)-2-deoxy-2-[(R)-3-(dodecanoyloxy)tetradecanoylamino]-4-O-phosphoryl-3-O-[(R)-3-(tetradecanoyloxy)tetradecanoyl]-α-D-glucopyranoside] | without any noticeable sign of degradation |  |  |  |  |
| CCCCCCCCCCCCCC(=O)O[C@H](CCCCCCCCCCC)CC(=O)O[C@@H]1[C@@H](NC(=O)C[C@@H](CCCCCCCCCCC)OC(=O)CCCCCCCCCCC)[C@@H](O[C@H]2O[C@H](CO)[C@@H](OC(=O)C[C@@H](CCCCCCCCCCC)OC(=O)CCCCCCCCCCC)[C@H](O)[C@@H]2OC)O[C@H](CO)[C@H]1OP(=O)(O)O [Compound 3, 4-O-[(R)-3-(Dodecanoyloxy)tetradecanoyl]-2-O-methyl-α-D-mannopyranosyl-(1↔1)-2-deoxy-2-[(R)-3-(dodecanoyloxy)tetradecanoylamino]-4-O-phosphoryl-3-O-[(R)-3-(tetradecanoyloxy)tetradecanoyl]-α-D-glucopyranoside] |  | less pronounced activation marker profile |  |  |  |
